We go through six compounds from article PMC10498496, “Design and Synthesis of Poly(2,2′-Bipyridyl) Ligands for Induction of Cell Death in Cancer Cells: Control of Anticancer Activity by Complexation/Decomplexation with Biorelevant Metal Cations” (Inorganic Chemistry, 2023).

Series [1] relates to U937 cells. The experiment in a line: MTT assay, cytotoxicity against U937 cells. It counts as cell-based, human. As to conditions: Homo sapiens, read-out: EC50 against U937. As to the method:
(§1) Second, we conducted the quantitative evaluation of the cytotoxicity of 1, 2, and 3 against various cancer cell lines by an MTT (3-(4,5-dimethylthiazol-2-yl)-2,5-diphenyltetrazolium bromide) assay. Jurkat, MOLT-4 (these two cell lines are human T-lymphocyte leukemia cells), and U937 (human lymphoma) cells (1.5 × 10^4 cells/well) were incubated in RPMI 1640 medium containing 10% FBS (fetal bovine serum) containing 1, 2, and 3 (0–25 μM) at 37 °C for 24 h, and then treated with the MTT reagent. A549 (human alveolar adenocarcinoma) and IMR-90 (normal human fetal lung fibroblast as model of normal cells) cells (1.5 × 10^4 cells/well) were incubated in DMEM (low glucose) with 10% FBS containing 1, 2, and 3 (0–25 μM), HeLa S3 (human epithelial carcinoma cells) cells (1.5 × 10^4 cells/well) were incubated in MEM with 10% FBS containing these ligands (0–25 μM) for 24 h at 37 °C and then treated with the MTT reagent.
(§2) • (a) Cytotoxic study. Jurkat cells, MOLT-4 cells, and U937 cells (1.5 × 10^5 cells/mL per one well) were incubated in 10% FBS RPMI 1640 medium containing 1 (0–25 μM), 2 (0–25 μM) , 3, cisplatin (0–100 μM), and actinomycin D (0–10 μM) under 5% CO2 at 37 °C for 24 h on 96 well plates (Watson), 0.5% MTT (3-(4,5-dimethyl-2-thiazolyl)-2,5-diphenyl-2H-tetrazolium bromide) reagent in PBS (10 μL) was then added to the cells. After incubation at 37 °C for 4 h, a formazan lysis solution (10% SDS in 0.01 N HCl) (100 μL) was added and the resulting solution was incubated overnight under the same conditions, followed by the measurement of absorbance at 570 nm with a microplate reader (BIO-RAD).

For series [2], the system named is IMR-90 cells. The experiment in a line: MTT assay, cytotoxicity against IMR-90 cells (model of normal cells). The class given is cell-based, human. As to conditions: Homo sapiens, read-out: EC50 against IMR-90. As to the method: as §1
(§3) IMR-90 cells in DMEM medium with 10% FBS (1.5 × 10^5 cells/mL) were seeded in to 96 well plates and incubated for 24 h at 37 °C, MTT assays with poly(bpy) ligands and their metal complexes (0–100 μM), cisplatin (0–100 μM), and actinomycin D (0–10 μM) were performed following the same procedure described above. These experiments were carried out at least three times. • (b) MTT assay in the presence of a caspase inhibitor. Jurkat cells were pre-treated with Z-VAD-fmk (15 μM) for 3 h, a general caspases inhibitor, followed by the treatment with 1 (1 μM), BABTA-AM (12.5 μM) and cisplatin (50 μM), respectively, for 24 h, and then MTT assay was carried out as described above. • (c) For evaluation of the effect of metal ions on the cytotoxicity of 1, 2, BAPTA, and BAPTA-AM, these ligands were incubated with metal ions such as Cu(NO3)2, Zn(NO3)2, FeSO4, Co(NO3)2, and NiSO4 for 1 h, respectively, and added to Jurkat cells. The whole mixtures were incubated for 12, 24, and 48 h at [ligand] = 0.78–25 μM and at [M^2+] = 1.71–37.5 μM ([ligand]/[M^2+] = 1:1.5). The MTT assays were conducted as described above.

In series [3] the test system is Jurkat cells. The experiment in a line: MTT assay, cytotoxicity against Jurkat cells. It counts as cell-based, human. As to conditions: Homo sapiens, Jurkat. As to the method:
as §1, §2

Series [4] concerns MOLT-4 cells. The experiment in a line: MTT assay, cytotoxicity against MOLT-4 cells. It counts as cell-based, human. The note with it: Homo sapiens, read-out: EC50 against MOLT-4. As to the method:
as §1, §2

Series [5] concerns Jurkat cells. Briefly: MTT assay in the presence of the caspase inhibitor Z-VAD-fmk. The class given is cell-based, human. As to conditions: Z-VAD-fmk 15 μM 3 h, then compound 12.5 μM for 24 h. From the text: We, therefore, selected Jurkat cells to study the cell death mechanism in detail, in this work. Programmed cell death (PCD) is generally classified into several types such as apoptosis, necroptosis, paraptosis, autophagic cell death, and so on.[30]−[33] We hypothesized that 1 and 2 function as inducers of apoptosis, which is a type of PCD in cancer cells, based on the morphological change of Jurkat cells observed in Figure 1 and mechanism of chelation therapy proposed in the previous studies.[11]−[19] It is known that the caspases family are cysteine proteases that play important roles in apoptosis and necroptosis.[38] Therefore, the effect of Z-VAD-fmk, which is known as one of general caspase inhibitors, on the cell death induced by 1 and cisplatin was examined.
Figure 3 Effect of Z-VAD-fmk on the cell death in Jurkat cells induced by 1. Jurkat cells were incubated in RPMI in the presence of Z-VAD-fmk (15 μM) for 3 h and then treated with (a) 1 (1 μM) and (b) cisplatin (50 μM) for 24 h. Asterisks indicate significant difference with *(P ≤ 0.05).
To investigate the mechanism responsible for the BAPTA-AM-induced cell death in Jurkat cells, Jurkat cells were incubated with Z-VAD-fmk (15 μM) for 3 h, and then cells were treated with BAPTA-AM (12.5 μM) for 24 h followed by an MTT assay.
IMR-90 cells in DMEM medium with 10% FBS (1.5 × 10^5 cells/mL) were seeded in to 96 well plates and incubated for 24 h at 37 °C, MTT assays with poly(bpy) ligands and their metal complexes (0–100 μM), cisplatin (0–100 μM), and actinomycin D (0–10 μM) were performed following the same procedure described above. These experiments were carried out at least three times. • (b) MTT assay in the presence of a caspase inhibitor. […]

Series [6] has as its system HeLa S3 cells. The experiment in a line: MTT assay, cytotoxicity against HeLa S3 cells. It counts as cell-based, human. The note with it: Homo sapiens. As to the method: Second, we conducted the quantitative evaluation of the cytotoxicity of 1, 2, and 3 against various cancer cell lines by an MTT (3-(4,5-dimethylthiazol-2-yl)-2,5-diphenyltetrazolium bromide) assay. Jurkat, MOLT-4 (these two cell lines are human T-lymphocyte leukemia cells), and U937 (human lymphoma) cells (1.5 × 10^4 cells/well) were incubated in RPMI 1640 medium containing 10% FBS (fetal bovine serum) containing 1, 2, and 3 (0–25 μM) at 37 °C for 24 h, and then treated with the MTT reagent. […]
(§4) HeLa S3 cells and A549 cells in MEM and DMEM medium with 10% FBS (1.5 × 10^5 cells/mL per one well) were seeded in to 96 well plates and incubated for 24 h, MTT assay of poly(bpy) ligands (0–25 μM), cisplatin (0–100 μM), and actinomycin D (0–10 μM) was performed according to the same procedure described above.

Series [7] deals with A549 cells. Briefly: MTT assay, cytotoxicity against A549 cells. As to conditions: Homo sapiens, A549, 37 °C, treated for 24 h. It counts as cell-based, human. As to the method: as §1, §4
Series [8] relates to Jurkat cells. Briefly: MTT assay of Jurkat cells, effect of metal ions and incubation time on cytotoxicity of ligands. It counts as cell-based, human. As to the method:
Next, we examined the effect of complexation of 1, 2, BAPTA, and BAPTA-AM with metal ions such as Cu(NO3)2, Zn(NO3)2, FeSO4, Co(NO3)2, and NiSO4 on their cytotoxicity against Jurkat cells. Mixture of ligands and metal ions were incubated for 1 h at 37 °C, and added to Jurkat cells for incubation for 12, 24, and 48 h at [ligand] = 0.78–25 μM and [M^2+] = 1.71–37.5 μM ([ligand]: [M^2+] = 1:1.5). After that, MTT assays were carried out, as shown in Figure S3 of the Supporting Information.
as §3

Series [9] concerns MOLT-4 cells. More on the design: method as in earlier work. As to conditions: ref 52 (Morita et al., Oncotarget 2013); read-out: EC50, cytotoxicity against MOLT-4 cells; cited from earlier work.
[10] abbreviates: U-937, MTT, 37 °C, treated for 24 h.
[11] abbreviates: IMR-90, MTT, 37 °C, treated for 24 h.
The mark [12] stands for this setting: MTT, 37 °C, treated for 24 h, read-out: EC50 against Jurkat (converted).
[13] abbreviates: MOLT-4, MTT, 37 °C, treated for 24 h.
Where [14] appears, read: HeLa S3, MTT, 37 °C, treated for 24 h, read-out: EC50 against HeLa S3 (converted).
Setting [15] is: Homo sapiens, Jurkat, no metal, incubation 48 h (Figure 9, S4), read-out: EC50 against Jurkat cells, metal-free ligand.

Like-named read-outs stand apart in the source and are kept apart here. Numbered stars: 1 amine (or outer) side, 2 acyl side, 3 side chain; on linkers, the order of the positions; unused ones are H or OH. Bridge positions count the residues as written; N and C are the ends. Square brackets hold non-standard residues; d marks the D form. Peptide text beside a SMILES is read from it. I, II: the chains in the order shown. Actinocin(9to1) = Cc1c2oc3c(C)ccc(C(=O)[*:1])c3nc-2c(C(=O)[*:2])c(N)c1=O; NMeV = CN[C@H](C(=O)O)C(C)C; Sar = CNCC(=O)O Where only a bound is given, the exact number is not on record here.

Consider `CC(=O)OCOC(=O)CN(CC(=O)OCOC(C)=O)c1ccccc1OCCOc1ccccc1N(CC(=O)OCOC(C)=O)CC(=O)OCOC(C)=O` [BAPTA-AM, reference compound], for which the EC50 was 7.1 ± 0.4 µM in series [1] (setting [10]); more than 50 µM in [2] (setting [11]); 8.6 ± 0.3 µM in series [3] (setting [12]); 13.2 ± 0.2 µM in [4] (setting [13]); more than 50 µM in series [6] (setting [14]); more than 50 µM in series [7]. Also, the concentration giving a half-maximal response (EC50) in series [8] (Homo sapiens, Jurkat, no metal, incubation 24 h (Figure S4), read-out: EC50 against Jurkat cells, ligand alone) amounted to 8.6 µM; in [8] (setting [15]) it was 7.9 µM. Further, the “cell viability of Jurkat cells after preincubation with Z-VAD-fmk” value in series [5] is given as “considerably restored”.
In the case of `O=[N+]([O-])[O-].O=[N+]([O-])[O-].[Co+2]` [Co^2+, Co(NO3)2], the concentration giving a half-maximal response (EC50) in series [8] (no ligand, incubation 48 h (Figure 9a), read-out: EC50 of ligand-free metal ion against Jurkat cells) amounted to 13 µM.
With `c1ccc(CN(CCN(Cc2ccccn2)Cc2ccccn2)Cc2ccccn2)nc1` [TPEN, N,N,N′,N′-tetra(2-pyrydylmethyl)ethylene diamine], in series [9], the EC50 is approximately 8 µM.
Consider `Cc1c2oc3c(C)ccc(C(=O)N[C@@H]4C(=O)N[C@H](C(C)C)C(=O)N5CCC[C@H]5C(=O)N(C)CC(=O)N(C)[C@@H](C(C)C)C(=O)O[C@@H]4C)c3nc-2c(C(=O)N[C@@H]2C(=O)N[C@H](C(C)C)C(=O)N3CCC[C@H]3C(=O)N(C)CC(=O)N(C)[C@@H](C(C)C)C(=O)O[C@@H]2C)c(N)c1=O` [actinomycin D, reference compound] (I: T[dV]P[Sar][NMeV] / II: T[dV]P[Sar][NMeV]; ester I:1-I:C, II:1-II:C; linker I:N-II:N via Actinocin(9to1)), for which the EC50 in series [1] (U-937, 24 h) is 0.051 µM; in series [2] (IMR-90, 24 h), 53 ± 2.6 µM; in series [3] (24 h, read-out: EC50 against Jurkat) it was 0.005 µM; in [4] (MOLT-4, 24 h) it was 0.003 µM; in series [6] (HeLa S3, 24 h, read-out: EC50 against HeLa S3) it was more than 10 µM.
Regarding `c1ccc(-c2ccc(OCc3cccc(COc4ccc(-c5ccccn5)nc4)c3)cn2)nc1` [compound 2, 1,3-Bis(([2,2′-Bipyridin]-5-yloxy)methyl)benzene], the melting point was 135 to 136 °C. For the same compound, in series [1] (setting [10]), the 50% effective concentration (EC50) amounted to 0.59 ± 0.33 µM. Besides, the 50% effective concentration (EC50) in [2] (setting [11]) is more than 100 µM. Besides, in series [3] (setting [12]), the EC50 was 0.77 ± 0.56 µM. Moreover, in [4] (setting [13]), the EC50 came to 0.64 ± 0.55 µM. Further, the EC50 in series [6] (setting [14]) is 15 ± 1.34 µM. The 50% effective concentration (EC50) in [7] is 9.5 ± 1.2 µM. In addition, the concentration giving a half-maximal response (EC50) in series [8] (Homo sapiens, Jurkat, no metal, incubation 12 h (Figure 9), read-out: EC50 against Jurkat cells, metal-free ligand) is approximately 2 µM. Also, in series [8] (setting [15]), the EC50 was approximately 0.1 µM.
Regarding `c1ccc(COc2ccc(-c3ccccn3)nc2)cc1` [compound 3, 5-(Benzyloxy)-2,2′-bipyridine], the melting point fell in the range of 85 to 87 °C. Further, in series [1] (setting [10]), the EC50 amounted to 5.6 ± 0.77 µM. For the same compound, in [2] (setting [11]), the concentration for a half-maximal effect (EC50) amounted to 75 ± 0.1 µM. Also, the EC50 in [3] (setting [12]) was 13 ± 0.34 µM. Further, in series [4] (setting [13]), the EC50 was 8.7 ± 0.89 µM. For the same compound, the concentration giving a half-maximal response (EC50) in [6] (setting [14]) was 15 ± 0.37 µM. This compound gave a concentration giving a half-maximal response (EC50) in [7] of 11 ± 0.55 µM.
